Measurements from US6964772B1, “Chitosan-xanthan based polyionic hydrogels for stabilization and controlled release of vitamins” (Kemestrie Inc., priority 1998, dated 2005).

Assay: Determination of the Vitamin C stability in the cream base at 45° C.
Assay type: physicochemical
Conditions: cream with 5-25 wt % Vitamin C, after 30 days at 45° C., protected from light
Protocol: The method consists of introducing 20 to 30 mg of freeze-dried CHITOXAN™ loaded with Vitamin C in a 50 ml centrifuge tube together with 40 ml of the extraction solvent. The mixture is magnetically stirred for 60 minutes. The suspension formed is centrifuged (4000 rpm) and the supernatant is analysed. All operations are done in absence of light.
This determination requires the establishment of a calibration curve at a maximum absorption wavelength using a UV-vis spectrophotometer. A standard is prepared with the same solution (and solvent) initially used to introduce the Vitamin C within the CHITOXAN™. Experimentation has shown an absorption maximum at 243 nm for Vitamin C at 98% purity obtained from ALDRICH.
The calibration curve is constructed at 243 nm as follows. A solution of 1.3 mg/ml of Vitamin C in the solvent is prepared in a graduated cylinder. The solution is prepared just before analysis. By successive dilutions, the absorption versus concentration calibration curve (mg/ml) is thus measured.
The concentration of Vitamin C in the supernatant obtained via extraction is determined at 243 nm using the calibration curve. […]
10 g of the preparation obtained by inclusion of CHITOXAN™—Vit. […] Samples not immediately analysed were kept frozen at −4° C.
The aliquots were analysed with the method described earlier (always using the extraction solvent). […]

- coloration of the cream: an orange coloration appeared
- degradation of Vitamin C: 98%
Structure (SMILES): O=C1O[C@H]([C@@H](O)CO)C(O)=C1O [free Vitamin C, Vitamin C]
